Here are results for two compounds from patent publication US11292787B2, “Five-membered-fused-six-membered aza-aromatic ring compound, preparation method thereof, pharmaceutical composition and application thereof” (XIAMEN UNIVERSITY, priority 2017, dated 2022).

SMILES strings stand for the structures. Entries after “also recorded” stand apart in the source; their conditions may differ.

The test system of one experiment is SW620 cells. The experiment is described as follows: Soft agar colony formation, SW620 cells (K-RAS-G12V). It is filed as cell-based. Conditions: K-RAS-G12V genetic background, FIG. 2b. As for the experimental part: (§1) The specific method was as follows:
(§2) 1) 1% agar was formulated, and autoclaved. 1% agar was heated and melted in a boiling water bath before use, and then cooled in a 40° C. water bath (by holding in the bath for at least 30 minutes, the agar was cooled to a temperature of 40° C.); at the same time, 2×DMEM/FBS was placed in a warm bath. 2) A bottom agar with 0.5% agar was prepared by mixing 1% agar with 2×DMEM/FBS in a sterile tube at a volume ratio of 1:1. The mixed solution was added to a 6-well plate rapidly at 1.5 ml per well, shaked slightly, and placed at room temperature for solidification (after solidification, the bottom agar could be stored at 4° C. for 1 week. Before use, it was placed at room temperature for at least 30 minutes to return to room temperature).
(§3) 1) A mixed solution with a final concentration of 0.3% agar+1×DMEM/FBS was formulated in a sterile tube using 1% agar, 2×DMEM/FBS and sterile water at a temperature of 40° C. The prepared mixed solution was placed in a 40° C. water bath for use.
(§4) 2) The cells were trypsinized and counted. The cell density was adjusted according to the needs of the experiment. […]

For a further experiment, the target named is T1, K-Ras protein (Homo sapiens, UniProt P01116, G12V).
T1 construct: in SW620 cells, compound I-a-1 can effectively enhance the degradation of endogenous K-RAS-G12V proteins; endogenous in cells; host or cells: SW-620
The experiment is described as follows: K-Ras protein degradation rate by Western blot in SW-620 cells. The experiment is classed as cell-based. The settings on record: for percent K-Ras protein degradation (single point) at 10 µM: SW-620 cells, 24 h, Western blot, relative to DMSO control, read-out: Degradation rate of compounds at 10 μM on Ras protein (%). The method, then:
(§5) Inhibitory activity of compounds on K-RAS was evaluated by the degradation rate of protein level of administration group relative to control group (Cell Rep 2014, 7, 871-882).
as §1
1. Cell plating: SW-620 cells in logarithmic growth phase were inoculated into a 24-well plate at 2×10^4/well, and cultured in a 37° C., 5% CO2 incubator.
2. Administering drug to cells: after 24 h of culture, various drug stocks […]; the original solution in the 24-well plate was discarded, to which was added the obtained drug solution, with the DMSO group as the blank control; after the drug solution was added, the 24-well plate was transferred to the 37° C. CO2 incubator to continue the culture.
3. Detection of K-Ras protein level: after 24 h of administration and culture, the liquid in the well was discarded, the cells were routinely collected, and rinsed twice with 1×PBS, a cell lysate was added to extract the total cellular protein, and the protein concentration was determined by BCA method. 30 μg of the protein sample was taken for SDS-polyacrylamide gel electrophoretic transmembrane, the membrane was blocked sequentially, incubated with K-Ras antibody (1:1000) and internal reference antibody β-actin (1:2000) respectively overnight at 4° C., rinsed with TBST for 5 min×3 times, then incubated with the addition of the corresponding horseradish peroxidase-labeled secondary antibody (1:5000) for 1-2 h, and rinsed with TBST for 5 min×3 times. Finally, chemiluminescence image was acquired using Image Lab software.
4. Calculation of single-point K-Ras protein degradation rate: quantitative and calibration analysis of K-Ras and β-actin were conducted using Image-Lab software, and then the intracellular K-Ras degradation rate was calculated according to the following formula: single-point K-Ras protein degradation rate (%)=(control group−administration group)/control group×100%. The drug with degradation rate ≥20% was selected for soft agar experiment.

The target of the next experiment is T2, K-RAS-G12V (Homo sapiens, UniProt P01116, G12V).
T2 construct: expressed in transfected cells; host or cells: 293T
The experiment is described as follows: Degradation of overexpressed K-RAS-G12V protein in 293T cells (FIG. 1a). The experiment is classed as cell-based. Conditions: 293T cells overexpressing K-RAS-G12V. As for the experimental part: as §5

The next experiment concerns HT-29 cells. In words: Soft agar colony formation, HT-29 cells (RAF mutation). The settings on record: RAF mutation genetic background, FIG. 2c. It is filed as cell-based. As for the experimental part: as §1, §2, §3, §4
Another experiment relates to MCF-7 cells. The experiment is described as follows: Soft agar colony formation, MCF-7 cells (K-RAS-WT). It is filed as cell-based. The settings on record: K-RAS-WT genetic background, FIG. 2a. As for the experimental part:
as §1, §2, §3, §4

A further experiment has as its system SW620 xenograft. In words: Nude mouse SW620 xenograft tumor experiment. It is filed as in vivo, nude mice. Conditions: tail vein, 40 mg/kg, 80 mg/kg per day, 10 days. The method, then: as §1
1. 4-5 weeks old nude mice were subcutaneously injected with a SW620 cell suspension with a cell number controlled at about 5×10^6.
2. The tumor-bearing condition was observed after two to three days, and the mice were administered when the tumor volume was about 150 mm^3.
4. The mice were injected intravenously regularly with drug or control solvent every day, and the daily tumor volume was recorded.
5. The mice were continuously administered for 10 days, and the changes in tumor volume of the drug-administered group and the control group were observed.
6. 10 days later, eyeball blood was taken from all mice, and blood samples were kept for subsequent testing. After the mice were killed, the subcutaneously growing tumors were completely taken out, the tumor weights were recorded, and the tumors were stored in liquid nitrogen for subsequent testing.

As for `O=C(NCc1c(F)cccc1Cl)c1csc(-c2n[nH]c3ncccc23)c1` [III-a-1], in the experiment on SW620 cells, the “colony formation on soft agar” value was “can effectively inhibit colony formation of the cells”. Also, the percent K-Ras protein degradation (single point) at 10 µM at K-Ras protein amounted to 21%.
As to `O=C(NCc1c(F)cccc1Cl)c1csc(-c2n[nH]c3ccccc23)c1` [I-a-1], at K-RAS-G12V, the “degradation of exogenous overexpressed RAS (K-RAS-G12V) protein” value is “can effectively enhance the degradation of exogenous overexpressed RAS proteins and has good concentration dependence”. Further, the figures for the “colony formation on soft agar” value with HT-29 cells and in the experiment on MCF-7 cells were “does not inhibit colony formation of the cells” and “can effectively inhibit colony formation of the cells”, respectively. For the same compound, the percent K-Ras protein degradation (single point) at 10 µM at K-Ras protein was found to be 52%. In addition, the “degradation of endogenous K-RAS-G12V protein” value at K-Ras protein (SW620 cells, FIG. 1b) was “can effectively enhance the degradation of endogenous K-RAS-G12V proteins and has good concentration dependence”. Moreover, the “tumor growth (tumor volume)” value in the experiment with SW620 xenograft (FIG. 3a) was “could effectively inhibit the growth of cancer cells with RAS positive genetic background in nude mice; also recorded: can effectively inhibit the increase of tumor volume and has good dose dependence”. Further, the final tumor weight result in the experiment with SW620 xenograft (FIG. 3b) is given as “obviously smaller than that of the control group”.
